Experimental data from article PMC7428016, “Influence of ligand’s directional configuration, chrysenes as model compounds, on the binding activity with aryl hydrocarbon receptor” (Scientific Reports, 2020).

Columns and labels:
[1] = molecular target: T1, AhR (Rattus norvegicus, UniProt P41738); assay: H4IIE-luc transactivation bioassay (AhR-mediated potency)
T1 sequence (P41738 10-853): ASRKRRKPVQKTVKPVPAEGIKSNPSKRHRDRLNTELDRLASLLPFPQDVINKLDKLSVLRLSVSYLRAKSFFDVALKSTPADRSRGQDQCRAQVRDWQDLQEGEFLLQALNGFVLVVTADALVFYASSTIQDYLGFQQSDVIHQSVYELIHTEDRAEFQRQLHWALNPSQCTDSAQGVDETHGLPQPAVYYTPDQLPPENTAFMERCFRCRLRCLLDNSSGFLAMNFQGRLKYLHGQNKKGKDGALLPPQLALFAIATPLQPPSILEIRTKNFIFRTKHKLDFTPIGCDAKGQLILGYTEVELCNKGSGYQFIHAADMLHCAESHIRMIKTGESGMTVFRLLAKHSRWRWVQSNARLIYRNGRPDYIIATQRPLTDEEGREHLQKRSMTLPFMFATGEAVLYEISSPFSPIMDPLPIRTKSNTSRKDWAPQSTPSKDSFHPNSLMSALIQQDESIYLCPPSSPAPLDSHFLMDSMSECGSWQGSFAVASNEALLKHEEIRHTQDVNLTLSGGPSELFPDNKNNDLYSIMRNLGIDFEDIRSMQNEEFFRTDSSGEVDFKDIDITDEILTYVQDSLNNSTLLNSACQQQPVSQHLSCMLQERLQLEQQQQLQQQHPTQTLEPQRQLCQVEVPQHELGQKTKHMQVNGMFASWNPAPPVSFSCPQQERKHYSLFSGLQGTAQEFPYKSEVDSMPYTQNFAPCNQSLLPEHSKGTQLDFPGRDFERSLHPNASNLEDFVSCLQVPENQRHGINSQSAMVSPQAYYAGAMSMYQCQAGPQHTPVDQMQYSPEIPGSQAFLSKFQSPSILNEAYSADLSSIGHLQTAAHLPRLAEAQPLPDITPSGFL
Description: H4IIE cell line derived from rat hepatoma has been reported to continuously express cytochrome P450 protein/mRNA. For this study, H4IIE cells transfected with the luciferase (Luc) reporter gene plasmid (pGudLuc1.1) were used, originally obtained from Jac Aarts, University of Wageningen, The Netherlands and further developed by John Giesy, University of Saskatchewan[44],[45]. Upon ligand binding, AhR in H4IIE-luc is activated and translocated to the nucleus, where heat shock proteins are dissociated from the complex and they form a dimer with the AhR nuclear translocator (ARNT) protein. This complex binds to specific DNA sequences with high affinity, the dioxin-responsive element (DRE). The binding to the DRE results in DNA bending transcriptional activation of adjacent responsive genes.
Acute toxic potencies of chrysene homologues were determined based on an AhR-mediated activity using H4IIE-luc cells, by the method previously reported. […] After the exposure, the activity results were expressed as relative luminescence units that were quantified using a Victor X3 multi label plate reader (PerkinElmer, Waltham, MA). Benzo[a]pyrene was used as a positive control ligand. We converted responses of the H4IIE-luc bioassay to the percentages of the maximum response (%BaPmax) observed for a 50 nM BaP (= 100%BaPmax). All bioassays were repeated four times in triplicate (Table S4 for detail information of in vitro bioassay conditions). […] Estimations of EC50 values of target compounds from the dose–response relationships were basically assumed equal efficacy and parallelism between target compounds and reference compound (benzo[a]pyrene).
Table S4. In vitro transactivation bioassay conditions for evaluating toxicities of chemical compounds.

[2] = Table S1, not marked as estimated; cited from earlier work

Row | Structure (SMILES) | EC50 [1] [µM] | Log Kow [2]
1 | Cc1ccc2c(ccc3c4ccccc4ccc23)c1 [2-methylchrysene] | 0.66 | –
2 | c1ccc2c(c1)ccc1c3ccccc3ccc21 [Chrysene] | 7.2 | 5.81
3 | c1ccc2c(c1)cc1ccc3cccc4c5ccccc5c2c1c34 [Dibenzo[def,p]chrysene] | 76 | 7.71
4 | c1ccc2c(c1)cc1ccc3c4ccccc4cc4ccc2c1c43 [Dibenzo[b,def]chrysene] | 14 | 7.28
5 | Cc1ccc2ccc3c4ccccc4ccc3c2c1 [3-methylchrysene] | 1.1 | –
6 | c1ccc2c(c1)ccc1c2ccc2c3ccccc3ccc21 [Benzo[a]chrysene] | 20 | 7.11
7 | Cc1cccc2c1ccc1c3ccccc3ccc21 [1-methylchrysene] | 1.9 | –
8 | Oc1ccc2c(ccc3c4ccccc4ccc23)c1 [2-hydroxychrysene] | 59 | –
9 | c1ccc2cc3c(ccc4c5ccccc5ccc34)cc2c1 [Benzo[b]chrysene] | 2.8 | 7.11
10 | c1ccc2c(c1)ccc1c2ccc2ccc3ccccc3c21 [Benzo[c]chrysene] | 1.3 | 7.11
11 | Oc1ccc2ccc3c4ccccc4ccc3c2c1 [3-hydroxychrysene] | 140 | –
12 | Oc1cccc2c1ccc1c3ccccc3ccc21 [1-hydroxychrysene] | 87 | –
